Test results as given in US8952024B2, “Herbicidal pyrimidone derivatives” (E I du Pont de Nemours and Company, priority 2009, dated 2015).

Key:
Type in all cases: in vivo
[1] = test system: canarygrass (Phalaris minor); experiment: Test B postemergence plant response; conditions: for Canarygrass plant response rating (0 to 100 scale): 62 g ai/ha, 0 is no effect, 13 to 15 days
Method in brief: (§1)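 Visual ratings from 0 (no effect) to 100 (complete control), made against controls 13–15 days after treatment, kept in a greenhouse. Compounds were applied postemergence to potted plants at the 1- to 4-leaf stage (2–18 cm).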

[2] = test system: chickweed (Stellaria media); experiment: Test B postemergence plant response; conditions: for Chickweed plant response rating (0 to 100 scale): 62 g ai/ha, 0 is no effect, 13 to 15 days
Method in brief: as §1

[3] = test system: winter barley (Hordeum vulgare); experiment: Test B postemergence plant response; conditions: for Barley plant response rating (0 to 100 scale): 62 g ai/ha, 0 is no effect, 13 to 15 days
Method in brief: as §1

[4] = test system: johnsongrass (Sorghum halepense); experiment: Test B pre-/postemergence plant response; conditions: for Johnsongrass plant response rating (0 to 100 scale): 62 g ai/ha, 0 is no effect, 13 to 15 days
Method in brief: (§2)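 Seeds sown in loam–sand blend were treated preemergence, and plants at 2–18 cm (1- to 4-leaf stage) in peat-based medium were treated postemergence; compounds were formulated in non-phytotoxic solvent with surfactant. After 13–15 days in greenhouse, response was visually rated against controls, 0 (no effect) to 100 (complete control).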

[5] = test system: ragweed (common ragweed, Ambrosia elatior); experiment: Test B pre-/postemergence plant response; conditions: for Ragweed plant response rating (0 to 100 scale): 62 g ai/ha, postemergence, 0 is no effect, 100 is complete control, 13 to 15 days; for Plant response rating, Ragweed: Postemergence, scale 0 to 100 (0 no effect, 100 complete control)
Method in brief: as §2

[6] = test system: wheat (Triticum aestivum); experiment: Test B pre-/postemergence plant response; conditions: for Wheat plant response rating (0 to 100 scale): 62 g ai/ha, postemergence, 0 is no effect, 100 is complete control, 13 to 15 days; for Plant response rating, Wheat: Postemergence, 125 g ai/ha, scale 0 to 100 (0 no effect, 100 complete control)
Method in brief: as §2

[7] = test system: downy bromegrass (Bromus tectorum); experiment: Test B pre-/postemergence plant response; conditions: for Bromegrass, Downy plant response rating (0 to 100 scale): 62 g ai/ha, 0 is no effect, 13 to 15 days
Method in brief: as §2

[8] = test system: morningglory (Ipomoea coccinea); experiment: Test B pre-/postemergence plant response; conditions: for Morningglory plant response rating (0 to 100 scale): 62 g ai/ha, 0 is no effect, 13 to 15 days
Method in brief: as §2

[9] = test system: pigweed (Amaranthus retroflexus); experiment: Test B pre-/postemergence plant response; conditions: for Pigweed plant response rating (0 to 100 scale): 62 g ai/ha, 0 is no effect, 13 to 15 days
Method in brief: as §2

soybean (Glycine max) = experiment: Test B pre-/postemergence plant response; conditions: for Soybean plant response rating (0 to 100 scale): 62 g ai/ha, postemergence, 0 is no effect, 100 is complete control, 13 to 15 days; for Plant response rating, Soybean: Postemergence, scale 0 to 100 (0 no effect, 100 complete control)
Method in brief: as §2

[10] = test system: bermudagrass (Cynodon dactylon); experiment: Test B pre-/postemergence plant response; conditions: for Bermudagrass plant response rating (0 to 100 scale): 62 g ai/ha, 0 is no effect, 13 to 15 days
Method in brief: as §2

[11] = test system: giant foxtail (Setaria faberii); experiment: Test B pre-/postemergence plant response; conditions: for Foxtail, Giant plant response rating (0 to 100 scale): 62 g ai/ha, 0 is no effect, 13 to 15 days
Method in brief: as §2

[12] = test system: green foxtail (Setaria viridis); experiment: Test B pre-/postemergence plant response; conditions: for Foxtail, Green plant response rating (0 to 100 scale): 62 g ai/ha, 0 is no effect, 13 to 15 days
Method in brief: as §2

corn (Zea mays) = experiment: Test B pre-/postemergence plant response; conditions: for Corn plant response rating (0 to 100 scale): 62 g ai/ha, 0 is no effect, 13 to 15 days
Method in brief: as §2

[13] = test system: goosegrass (Eleusine indica); experiment: Test B pre-/postemergence plant response; conditions: for Goosegrass plant response rating (0 to 100 scale): 62 g ai/ha, 0 is no effect, 13 to 15 days
Method in brief: as §2

[14] = test system: velvetleaf (Abutilon theophrasti); experiment: Test B pre-/postemergence plant response; conditions: for Velvetleaf plant response rating (0 to 100 scale): 62 g ai/ha, postemergence, 0 is no effect, 100 is complete control, 13 to 15 days; for Plant response rating, Velvetleaf: Postemergence, scale 0 to 100 (0 no effect, 100 complete control)
Method in brief: as §2

[15] = test system: Italian ryegrass (Lolium multiflorum); experiment: Test B pre-/postemergence plant response; conditions: for Ryegrass, Italian plant response rating (0 to 100 scale): 62 g ai/ha, postemergence, 0 is no effect, 100 is complete control, 13 to 15 days; for Plant response rating, Ryegrass, Italian: Postemergence, scale 0 to 100 (0 no effect, 100 complete control)
Method in brief: as §2

[16] = test system: blackgrass (Alopecurus myosuroides); experiment: Test B pre-/postemergence plant response; conditions: for Blackgrass plant response rating (0 to 100 scale): 62 g ai/ha, 0 is no effect, 13 to 15 days
Method in brief: as §2

[17] = 31 g ai/ha, postemergence, scale 0 to 100, 0 is no effect, 100 is complete control
[18] = postemergence, 100 is complete control
[19] = Postemergence, 125 g ai/ha, scale 0 to 100 (0 no effect, 100 complete control)
[20] = Postemergence, 250 g ai/ha, scale 0 to 100 (0 no effect, 100 complete control)

COCCn1c(-c2cccs2)ncc(C(=O)C2=C(O)CCCC2=O)c1=O [Compound 108]
50: Plant response rating, Corn (corn (Zea mays); [19])
75: Plant response rating, Morningglory [8, 17] | Plant response rating, Foxtail, Giant [11, 19] | Plant response rating, Goosegrass [13, 19]
15: Plant response rating, Corn (corn (Zea mays); [17])
60: Plant response rating, Johnsongrass [4, 20] | Foxtail, Giant plant response rating (0 to 100 scale) [11, 18] | Plant response rating, Goosegrass [13, 17]
30: Foxtail, Green plant response rating (0 to 100 scale) [12, 18] | Plant response rating, Blackgrass [16, 20]
45: Plant response rating, Foxtail, Giant [11, 17]
100: Chickweed plant response rating (0 to 100 scale) [2, 18] | Plant response rating, Chickweed [2, 19] | Plant response rating, Chickweed [2, 20] | Plant response rating, Morningglory [8, 19] | Plant response rating, Morningglory [8, 20] | Plant response rating, Pigweed [9, 19] | Plant response rating, Pigweed [9, 20] | Plant response rating, Bermudagrass [10, 19] | Plant response rating, Bermudagrass [10, 20] | Velvetleaf plant response rating (0 to 100 scale) [14] | Plant response rating, Velvetleaf ([14]; 125 g ai/ha) | Plant response rating, Velvetleaf ([14]; 250 g ai/ha)
80: Plant response rating, Foxtail, Giant [11, 20] | Plant response rating, Foxtail, Green [12, 19] | Plant response rating, Foxtail, Green [12, 20]
20: Johnsongrass plant response rating (0 to 100 scale) [4, 18] | Plant response rating, Johnsongrass [4, 19] | Plant response rating, Blackgrass [16, 19]
10: Plant response rating, Johnsongrass [4, 17]
0: Plant response rating, Canarygrass [1, 17] | Plant response rating, Barley [3, 17] | Barley plant response rating (0 to 100 scale) [3, 18] | Plant response rating, Barley [3, 19] | Plant response rating, Barley [3, 20] | Wheat plant response rating (0 to 100 scale) [6] | Plant response rating, Wheat [6] | Plant response rating, Bromegrass, Downy [7, 17] | Bromegrass, Downy plant response rating (0 to 100 scale) [7, 18] | Ryegrass, Italian plant response rating (0 to 100 scale) [15] | Plant response rating, Ryegrass, Italian ([15]; 125 g ai/ha) | Plant response rating, Ryegrass, Italian ([15]; 250 g ai/ha) | Plant response rating, Blackgrass [16, 17]
98: Plant response rating, Ragweed ([5]; 250 g ai/ha) | Pigweed plant response rating (0 to 100 scale) [9, 18]
95: Plant response rating, Ragweed ([5]; 125 g ai/ha) | Plant response rating, Pigweed [9, 17]
85: Plant response rating, Chickweed [2, 17] | Ragweed plant response rating (0 to 100 scale) [5] | Plant response rating, Soybean (soybean (Glycine max); 250 g ai/ha) | Plant response rating, Bermudagrass [10, 17] | Plant response rating, Goosegrass [13, 20]
90: Morningglory plant response rating (0 to 100 scale) [8, 18] | Bermudagrass plant response rating (0 to 100 scale) [10, 18]
65: Plant response rating, Soybean (soybean (Glycine max); 125 g ai/ha) | Plant response rating, Corn (corn (Zea mays); [20])
35: Corn plant response rating (0 to 100 scale) (corn (Zea mays); [18])
70: Goosegrass plant response rating (0 to 100 scale) [13, 18]
5: Canarygrass plant response rating (0 to 100 scale) [1, 18] | Plant response rating, Canarygrass [1, 19] | Plant response rating, Canarygrass [1, 20] | Plant response rating, Bromegrass, Downy [7, 19] | Plant response rating, Bromegrass, Downy [7, 20] | Plant response rating, Foxtail, Green [12, 17] | Blackgrass plant response rating (0 to 100 scale) [16, 18]
55: Soybean plant response rating (0 to 100 scale) (soybean (Glycine max))

O=C1CCCC(O)=C1C(=O)c1cnc(-c2cccs2)n(CC2CCCO2)c1=O (stereo not drawn) [Compound 109]
45: Plant response rating, Canarygrass [1, 20]
95: Ragweed plant response rating (0 to 100 scale) [5] | Plant response rating, Ragweed ([5]; 125 g ai/ha) | Soybean plant response rating (0 to 100 scale) (soybean (Glycine max)) | Plant response rating, Bermudagrass [10, 20]
85: Bermudagrass plant response rating (0 to 100 scale) [10, 18] | Plant response rating, Foxtail, Green [12, 19] | Plant response rating, Goosegrass [13, 20]
30: Plant response rating, Canarygrass [1, 19] | Johnsongrass plant response rating (0 to 100 scale) [4, 18]
70: Plant response rating, Morningglory [8, 17] | Plant response rating, Bermudagrass [10, 17] | Plant response rating, Foxtail, Giant [11, 17]
90: Plant response rating, Chickweed [2, 17] | Plant response rating, Bermudagrass [10, 19] | Plant response rating, Foxtail, Giant [11, 20]
80: Plant response rating, Foxtail, Giant [11, 19] | Foxtail, Green plant response rating (0 to 100 scale) [12, 18] | Plant response rating, Goosegrass [13, 19]
75: Plant response rating, Johnsongrass [4, 20] | Foxtail, Giant plant response rating (0 to 100 scale) [11, 18] | Goosegrass plant response rating (0 to 100 scale) [13, 18]
100: Plant response rating, Chickweed [2, 20] | Plant response rating, Morningglory [8, 19] | Plant response rating, Morningglory [8, 20] | Plant response rating, Pigweed [9, 17] | Pigweed plant response rating (0 to 100 scale) [9, 18] | Plant response rating, Pigweed [9, 19] | Plant response rating, Pigweed [9, 20] | Plant response rating, Soybean (soybean (Glycine max); 250 g ai/ha) | Plant response rating, Velvetleaf ([14]; 125 g ai/ha) | Plant response rating, Velvetleaf ([14]; 250 g ai/ha)
0: Plant response rating, Canarygrass [1, 17] | Canarygrass plant response rating (0 to 100 scale) [1, 18] | Plant response rating, Barley [3, 17] | Barley plant response rating (0 to 100 scale) [3, 18] | Plant response rating, Bromegrass, Downy [7, 17] | Bromegrass, Downy plant response rating (0 to 100 scale) [7, 18] | Plant response rating, Corn (corn (Zea mays); [17]) | Ryegrass, Italian plant response rating (0 to 100 scale) [15] | Plant response rating, Blackgrass [16, 17]
15: Corn plant response rating (0 to 100 scale) (corn (Zea mays); [18])
5: Plant response rating, Barley [3, 19] | Plant response rating, Barley [3, 20] | Plant response rating, Johnsongrass [4, 17] | Wheat plant response rating (0 to 100 scale) [6] | Plant response rating, Wheat [6] | Plant response rating, Bromegrass, Downy [7, 19] | Plant response rating, Bromegrass, Downy [7, 20] | Plant response rating, Ryegrass, Italian ([15]; 125 g ai/ha) | Blackgrass plant response rating (0 to 100 scale) [16, 18]
60: Plant response rating, Corn (corn (Zea mays); [19]) | Plant response rating, Corn (corn (Zea mays); [20])
20: Plant response rating, Foxtail, Green [12, 17]
65: Plant response rating, Goosegrass [13, 17]
40: Plant response rating, Ryegrass, Italian ([15]; 250 g ai/ha) | Plant response rating, Blackgrass [16, 19]
98: Chickweed plant response rating (0 to 100 scale) [2, 18] | Plant response rating, Chickweed [2, 19] | Plant response rating, Ragweed ([5]; 250 g ai/ha) | Morningglory plant response rating (0 to 100 scale) [8, 18] | Plant response rating, Soybean (soybean (Glycine max); 125 g ai/ha) | Plant response rating, Foxtail, Green [12, 20] | Velvetleaf plant response rating (0 to 100 scale) [14]
50: Plant response rating, Johnsongrass [4, 19] | Plant response rating, Blackgrass [16, 20]
